Data: patent EP4745134A1 (Jiangsu Yahong Meditech Co., Ltd., priority 2023, dated 2025)
Read-outs that look alike come from different tables or passages of the source.

Experiments:
HCT116 MTAP KO cells = assay: Inhibitory activity against cell proliferation (CellTiter Glo, 6 days), HCT116 MTAP KO; type: cell-based; conditions: for IC50: Homo sapiens, HCT-116, 144 h, HCT116 MTAP KO cells, 6 days, CellTiter Glo, read-out: HCT116 MTAP KO IC50; for Selectivity HCT 116-WT/ HCT116 MTAP KO: ratio of IC50 HCT116-WT / HCT116 MTAP KO
Method in brief: (§1)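 Viability is measured by CellTiter Glo luminescence on day 7, following a 6-day treatment with compounds serially diluted 4-fold over 8 points from 10000 nM. Both lines are plated at 250 cells per well and cultured overnight beforehand.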

PRMT5-MTA = PRMT5-MTA (Homo sapiens, UniProt O14744); assay: Enzymatic inhibitory activity against PRMT5-MTA (AlphaScreen); type: biochemical
Sequence of PRMT5-MTA (O14744 whole entry): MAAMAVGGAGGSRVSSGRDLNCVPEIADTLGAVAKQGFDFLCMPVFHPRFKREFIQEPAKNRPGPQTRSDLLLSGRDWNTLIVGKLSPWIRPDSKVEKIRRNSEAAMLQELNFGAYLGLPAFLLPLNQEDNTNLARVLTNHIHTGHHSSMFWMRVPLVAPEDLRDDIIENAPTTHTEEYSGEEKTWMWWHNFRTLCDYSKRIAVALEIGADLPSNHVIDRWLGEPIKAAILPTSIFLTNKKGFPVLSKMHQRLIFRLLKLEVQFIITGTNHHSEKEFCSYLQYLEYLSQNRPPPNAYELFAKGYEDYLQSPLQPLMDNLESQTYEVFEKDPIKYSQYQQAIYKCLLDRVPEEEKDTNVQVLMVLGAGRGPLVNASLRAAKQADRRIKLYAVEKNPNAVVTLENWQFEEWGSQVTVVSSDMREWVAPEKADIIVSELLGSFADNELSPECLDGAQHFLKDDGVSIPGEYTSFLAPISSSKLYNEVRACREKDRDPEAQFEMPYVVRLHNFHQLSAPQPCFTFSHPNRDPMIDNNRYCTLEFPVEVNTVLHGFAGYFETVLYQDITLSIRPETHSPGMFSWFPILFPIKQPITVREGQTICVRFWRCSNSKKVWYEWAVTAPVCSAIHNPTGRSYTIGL
Sequence of PRMT5-MTA (Q9BQA1 whole entry partner): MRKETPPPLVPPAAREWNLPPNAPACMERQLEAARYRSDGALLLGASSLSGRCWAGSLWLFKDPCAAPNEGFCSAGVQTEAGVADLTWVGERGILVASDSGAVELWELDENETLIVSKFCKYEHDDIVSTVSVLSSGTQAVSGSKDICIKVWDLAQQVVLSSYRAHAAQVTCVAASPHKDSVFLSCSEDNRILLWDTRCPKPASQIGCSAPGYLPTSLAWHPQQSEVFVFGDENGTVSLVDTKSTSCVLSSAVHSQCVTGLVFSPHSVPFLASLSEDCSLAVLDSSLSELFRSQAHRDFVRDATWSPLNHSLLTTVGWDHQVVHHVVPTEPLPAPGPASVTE
Method in brief: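 PRMT5/[…] (1 nM) was preincubated for 30 min at room temperature with 1 µM […] and 2.5 µM SAM, then exposed to compound (10-point, 3-fold from 1000 nM) for 15 min at 23 °C. Histone H4 substrate (5 nM) was added and reacted for 45 min at 23 °C. Symmetric dimethyl-R3 H4 was detected by AlphaScreen and IC50 calculated.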

HCT116-WT cells = assay: Inhibitory activity against cell proliferation (CellTiter Glo, 6 days), HCT116-WT; type: cell-based; conditions: 144 h, HCT116-WT cells, 6 days, CellTiter Glo; read-out: HCT116-WT IC50
Method in brief: as §1

SMILES	IC50 (HCT116 MTAP KO cells) [nM]	Selectivity HCT 116-WT/ HCT116 MTAP KO (HCT116 MTAP KO cells)	IC50 (PRMT5-MTA; read-out: IC50) [nM]	IC50 (HCT116-WT cells) [nM]	IC50 (PRMT5-MTA) [nM]
Cn1ncc2c(N)nc3cc(Cl)c(C(=O)N4CC(C)(F)CN4c4ncc(F)cc4F)cc3c21 (centres unmarked) [Example 424, (4-amino-7-chloro-1-methyl-1H-pyrazolo [4,3-c]quinolin-8-yl)(2-(3,5-2 fluoropyridin-2-yl)-4-fluoro-4-methylpyrazolidin-1-yl)methanone]	23	16.26	7.3	374	
Cn1ncc2c(N)nc3cc(Cl)c(C(=O)N4CC(C)(F)CN4c4ncccc4F)cc3c21 (centres unmarked) [Example 425, (4-amino-7-chloro-1-methyl-1H-pyrazolo [4,3-c]quinolin-8-yl)(4-fluoro-2-(3-fluoropyridin-2-yl)-4-methylpyrazolidin-1-yl)m ethanone]	54	15.74	8.3	850	
Cc1cc2nc(N)c3cnn(C)c3c2cc1C(=O)N1CC(C)(O)CN1c1ncccc1F (centres unmarked) [Example 427, (4-amino-1,7-dimethyl-1H-pyrazolo[4,3-c]quinolin-8-yl)(2-(3-fluoropyridin-2-yl)-4-hydroxy-4-methylpyrazolin-1-yl)methanone]	235	>42.55	6.2	> 10000	
C=C1CN(C(=O)c2cc3c(cc2Cl)nc(N)c2cnn(C)c23)N(c2ncc(Br)cc2F)C1 [Example 430, (4-amino-7-chloro-1-methyl-1H-pyrazolo [4,3-c]quinolin-8-yl)(2-(5-bromo-3-fluor opyridin-2-yl)-4-methylenepyrazolidin-1-yl)methanone]	22	26.59	5.5	585	
C=C1CN(C(=O)c2cc3c(cc2Cl)nc(N)c2cnn(C)c23)N(c2ccccc2F)C1 [Example 431, (4-amino-7-chloro-1-methyl-1H-pyrazolo [4,3-c]quinolin-8-yl)(2-(2-fluorophenyl)-4-methylenepyrazolidin-1-yl)methanone]	10	24.80	5.4	248	
C=C1CN(C(=O)c2cc3c(cc2Cl)nc(N)c2cnn(C)c23)N(c2ncc(F)cc2F)C1 [Example 432, (4-amino-7-chloro-1-methyl-1H-pyrazolo [4,3-c]quinolin-8-yl)(2-(3,5-2 fluoropyridin-2-yl)-4-methylenepyrazolidin-1-yl)methanone]	16	41.06	4.5	657	
C=C1CN(C(=O)c2cc3c(cc2Cl)nc(N)c2cnn(C)c23)N(c2ncccc2F)C1 [Example 433, (4-amino-7-chloro-1-methyl-1H-pyrazolo [4,3-c]quinolin-8-yl)(2-(3-fluoropyridin-2-yl)-4-methylenepyrazolidin-1-yl)methanone]	33	33.64	3.8	1110	
C=C1CN(C(=O)c2cc3c(cc2Cl)nc(N)c2cnn(C)c23)N(c2ncc(Cl)cc2F)C1 [Example 434, (4-amino-7-chloro-1-methyl-1H-pyrazolo [4,3-c]quinolin-8-yl)(2-(5-chloro-3-fluoropyridin-2-yl)-4-methylenepyrazolidin-1-y 1)methanone]	36	25.17	6.1	906	
C=C1CN(C(=O)c2cc3c(cc2Cl)nc(N)c2cnn(C)c23)N(c2cccc(F)n2)C1 [Example 435, (4-amino-7-chloro-1-methyl-1H-pyrazolo [4,3-c]quinolin-8-yl)(2-(6-fluoropyridin-2-yl)-4-methylenepyrazolidin-1-yl)methanone]	15	27.13	7.3	407	
COC1CN(C(=O)c2cc3c(cc2C)nc(N)c2cnn(C)c23)N(c2ccccc2F)C1 (centres unmarked) [Example 436]	27	27.19		734	4.8
COC1CN(C(=O)c2cc3c(cc2Cl)nc(N)c2cnn(C)c23)N(c2ccccc2F)C1 (centres unmarked) [Example 437, (4-amino-7-chloro-1-methyl-1H-pyrazolo [4,3-c]quinolin-8-yl)(2-(2-fluorophenyl)-4-methoxypyrazolidin-1-yl)methanone]	13	18.62	4.7	242	
COC1CN(C(=O)c2cc3c(cc2Cl)nc(N)c2cnn(C)c23)N(c2ncc(Br)cc2F)C1 (centres unmarked) [Example 439, (4-amino-7-chloro-1-methyl-1H-pyrazolo [4,3-c]quinolin-8-yl)(2-(5-bromo-3-fluor opyridin-2-yl)-4-methoxypyrazolidin-1-yl)methanone]	37	19.86	5.5	735	
COC1CN(C(=O)c2cc3c(cc2C)nc(N)c2cnn(C)c23)N(c2ncc(Cl)cc2F)C1 (centres unmarked) [Example 441, (4-amino-1,7-dimethyl-1H-pyrazolo[4,3-c]quinolin-8-y1)(2-(5-chloro-3-fluoropyridin-2-yl)-4-methoxypyrazolidin-1-yl)met hanone]	48	37.31	7.2	1790	
COC1CN(C(=O)c2cc3c(cc2Cl)nc(N)c2cnn(C)c23)N(c2ncc(F)cc2F)C1 (centres unmarked) [Example 442, (4-amino-7-chloro-1-methyl-1H-pyrazolo [4,3-c]quinolin-8-yl)(2-(3,5-2 fluoropyridin-2-yl)-4-methoxypyrazolidin-1-yl)methanone]	42	15.10	4.6	634	
COC1CN(C(=O)c2cc3c(cc2C)nc(N)c2cnn(C)c23)N(c2ncc(F)cc2F)C1 (centres unmarked) [Example 443, (4-amino-1,7-dimethyl-1H-pyrazolo[4,3-c]quinolin-8-yl)(2-(3,5- ? fluoropyridin-2-yl)-4-methoxypyrazolidin-1-yl)methanone]	26	18.00	5	468	
COC1CN(C(=O)c2cc3c(cc2Cl)nc(N)c2cnn(C)c23)N(c2ncccc2F)C1 (centres unmarked) [Example 444, (4-amino-7-chloro-1-methyl-1H-pyrazolo [4,3-c]quinolin-8-yl)(2-(3-fluoropyridin-2-yl)-4-methoxypyrazolidin-1-yl)methanone]	80	15.43	3.7	1230	
COC1CN(C(=O)c2cc3c(cc2C)nc(N)c2cnn(C)c23)N(c2cc(F)ccc2F)C1 (centres unmarked) [Example 445, (4-amino-1,7-dimethyl-1H-pyrazolo[4,3-c]quinolin-8-yl)(2-(2,5-difluorophenyl)-4-methoxypyrazolidin-1-yl)methanone]	22	24.91	6.4	548	
COC1CN(C(=O)c2cc3c(cc2Cl)nc(N)c2cnn(C)c23)N(c2cccc(F)c2F)C1 (centres unmarked) [Example 447, (4-amino-7-chloro-1-methyl-1H-pyrazolo [4,3-c]quinolin-8-yl)(2-(2,3-difluorophenyl)-4-methoxypyrazolidin-1-yl)methanone]	24	13.13	6.8	315	
COC1CN(C(=O)c2cc3c(cc2Cl)nc(N)c2cnn(C)c23)N(c2cccc(F)n2)C1 (centres unmarked) [Example 448, (4-amino-7-chloro-1-methyl-1H-pyrazolo [4,3-c]quinolin-8-yl)(2-(6-fluoropyridin-2-yl)-4-methoxypyrazolidin-1-yl)methanone]	27	21.70	5.1	586	
COC1CN(C(=O)c2cc3c(cc2C)nc(N)c2cnn(C)c23)N(c2cccc(F)n2)C1 (centres unmarked) [Example 449, (4-amino-1,7-dimethyl-1H-pyrazolo[4,3-c]quinolin-8-yl)(2-(6-fluoropyridin-2-yl) -4-methoxypyrazolidin-1-yl)methanone]	63	23.37	5.2	1470	
Cc1cc2nc(N)c3cnn(C)c3c2cc1C(=O)N1CC(F)CN1c1ncccc1F (centres unmarked) [Example 450, (4-amino-1,7-dimethyl-1H-pyrazolo[4,3-c]quinolin-8-yl)(4-fluoro-2-(3-fluoropyridin-2-yl)pyrazolidin-1-yl)methanone]	20	61.20	3.8	1220	
Cn1ncc2c(N)nc3cc(Cl)c(C(=O)N4CC(OCC(F)(F)F)CN4c4ncccc4F)cc3c21 (centres unmarked) [Example 451, (4-amino-7-chloro-1-methyl-1H-pyrazolo[4,3-c]quinolin-8-yl)(2-(3-fluoropyridin-2-yl)-4-(2,2,2-trifluoroethoxy)pyrazolidin-1-yl)methanone]	40	25.30	7	1010	
Cc1cc2nc(N)c3cnn(C)c3c2cc1C(=O)N1CC(OCC(F)(F)F)CN1c1ncccc1F (centres unmarked) [Example 452, (4-amino-1,7-dimethyl-1H-pyrazolo[4,3-c]quinolin-8-yl)(2-(3-fluoropyridin-2-yl)-4-(2,2,2-trifluoroethoxy)pyrazolidin-1-yl) methanone]	45	31.67	7.3	1420	
